The results in this text go back to patent publication US9845330B2, “6-nitro-2,3-dihydroimidazo[2,1-b]oxazoles and a process for the preparation thereof” (priority 2013, dated 2017).

Molecules are shown by their SMILES. Values after ≈ are worked out from the molar mass of the structure shown. Read-outs that look alike come from different tables or passages of the source.

Holding throughout (assay type): cell-based
In data set [1] the test system is M. tuberculosis H37Rv (ATCC 27294). In words: MIC by broth dilution method, M. tuberculosis H37Rv. To be noted: Mycobacterium tuberculosis. Background: Broth dilution looks for growth in wells or tubes with falling amounts of substance.
Data set [2] in a line: Cytotoxicity assay (MTT) in macrophage J774 cells. The conditions noted are these: mouse, J774 macrophage cells; also called safety index. Put shortly: (§1)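 J774 cells seeded at 3×10^4 cells/cm^2 in RPMI with FCS reduced to 5%, then exposed to compounds at 40 μg/ml for 24 hrs. MTT reduction read at 450 nm; percentage cytotoxicity calculated relative to untreated cells.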
For data set [3], the system named is macrophage J774 cells line. In words: Cytotoxicity assay (MTT) in macrophage J774 cells. The conditions noted are these: J774 cells, 24 hrs, MTT. The essentials: as §1
Where [4] appears, read: 504 h, broth dilution, 3 weeks, read-out: MIC M. tb H37Rv.
Where [5] appears, read: read-out: MIC value, text summary: sensitive H37Rv as well as MDR and XDR strains of M. tuberculosis.

A word on the MIC: it is the smallest concentration in the dilution series that meets the test's criterion for growth inhibition. Turning to `C[C@]1(COc2ccc(-c3cc(-c4ccccc4F)on3)cc2)Cn2cc([N+](=O)[O-])nc2O1` [IC4, (R)-2-{4-[5-(2-fluorophenyl)isoxazol-3-yl]phenoxymethyl}-2,3-dihydro-2-methyl-6-nitroimidazo[2,1-b]oxazole], the MIC in data set [1] (setting [4]) was determined as 2 µg/mL (≈ 4.58 µM). In addition, the selectivity ratio at 24 h, 40 μg/ml in data set [2] was > 10. For the same molecule, the Cytotoxicity in data set [3] is >40 µg/mL.

Regarding `C[C@]1(COc2ccc(-c3cc(-c4ccc(C(F)(F)F)cc4)on3)cc2)Cn2cc([N+](=O)[O-])nc2O1` [IC5, (R)-2-{4-[5-(4-trifluoromethylphenyl)isoxazol-3-yl]phenoxymethyl}-2,3-dihydro-2-methyl-6-nitroimidazo[2,1-b]oxazole], the MIC in data set [1] (setting [4]) is 1 µg/mL (≈ 2.06 µM). The selectivity ratio at 24 h, 40 μg/ml in data set [2] is > 10. For the same molecule, in data set [3], the Cytotoxicity is >40 µg/mL.

For the molecule `Cc1ccc(-c2cc(-c3ccc(OC[C@@]4(C)Cn5cc([N+](=O)[O-])nc5O4)cc3)no2)cc1` [IC6, (R)-2-{4-[5-(4-methylphenyl)isoxazol-3-yl]phenoxymethyl}-2,3-dihydro-2-methyl-6-nitroimidazo[2,1-b]oxazole], in data set [1] (setting [4]), the MIC is 1 µg/mL (≈ 2.31 µM). In addition, the selectivity ratio at 24 h, 40 μg/ml in data set [2] was > 10. For the same molecule, the Cytotoxicity in data set [3] is >40 µg/mL.

For the molecule `COc1ccc(-c2cc(-c3ccc(OC[C@@]4(C)Cn5cc([N+](=O)[O-])nc5O4)cc3)no2)cc1` [IC7, (R)-2-{4-[5-(4-methoxyphenyl)isoxazol-3-yl]phenoxymethyl}-2,3-dihydro-2-methyl-6-nitroimidazo[2,1-b]oxazole], the MIC is 0.5 µg/mL (≈ 1.11 µM) in data set [1] (setting [4]) and < 1 µg/mL in data set [1] (setting [5]). The selectivity ratio at 24 h, 40 μg/ml in data set [2] is > 10. Further, the Cytotoxicity in data set [3] was >40 µg/mL.

Regarding `C[C@]1(COc2ccc(-c3cc(-c4ccc(OC(F)(F)F)cc4)on3)cc2)Cn2cc([N+](=O)[O-])nc2O1` [IC10, (R)-2-{4-[5-(4-trifluoromethoxyphenyl)isoxazol-3-yl]phenoxymethyl}-2,3-dihydro-2-methyl-6-nitroimidazo[2,1-b]oxazole], the MIC is 0.5 µg/mL (≈ 0.995 µM) in data set [1] (setting [4]) and < 1 µg/mL in data set [1] (setting [5]). Moreover, in data set [2], the selectivity ratio at 24 h, 40 μg/ml was > 10. The Cytotoxicity in data set [3] was >40 µg/mL.

Turning to `CCCCCc1cc(-c2ccc(OC[C@@]3(C)Cn4cc([N+](=O)[O-])nc4O3)cc2)no1` [IC11, (R)-2-{4-[5-pentylisoxazol-3-yl]phenoxymethyl}-2,3-dihydro-2-methyl-6-nitroimidazo[2,1-b]oxazole], the MIC in data set [1] (setting [4]) is 32 µg/mL (≈ 77.6 µM). In addition, the selectivity ratio at 24 h, 40 μg/ml in data set [2] is > 10. Further, the Cytotoxicity in data set [3] is >40 µg/mL.

On to `CCCCCCCc1cc(-c2ccc(OC[C@@]3(C)Cn4cc([N+](=O)[O-])nc4O3)cc2)no1` [IC12, (R)-2-{4-[5-heptylisoxazol-3-yl]phenoxymethyl}-2,3-dihydro-2-methyl-6-nitroimidazo[2,1-b]oxazole], for which the MIC in data set [1] (setting [4]) turned out to be 2 µg/mL (≈ 4.54 µM). Besides, the selectivity ratio at 24 h, 40 μg/ml in data set [2] is > 10. The Cytotoxicity in data set [3] was >40 µg/mL.

As for `C[C@]1(COc2ccc(-c3cc(COc4ccc(C(F)(F)F)cc4)on3)cc2)Cn2cc([N+](=O)[O-])nc2O1` [IC15, (R)-2-{4-[5-(4-trifluoromethylphenoxymethyl)isoxazol-3-yl]phenoxymethyl}-2,3-dihydro-2-methyl-6-nitroimidazo[2,1-b]oxazole], the MIC is 0.25 µg/mL (≈ 0.484 µM) in data set [1] (setting [4]) and < 1 µg/mL in data set [1] (setting [5]). Besides, the selectivity ratio at 24 h, 40 μg/ml in data set [2] was > 10. The Cytotoxicity in data set [3] was >40 µg/mL.

In the case of `C[C@]1(COc2ccc(-c3cc(COc4ccccc4F)on3)cc2)Cn2cc([N+](=O)[O-])nc2O1` [IC16, (R)-2-{4-[5-(2-fluorophenoxymethyl)isoxazol-3-yl]phenoxymethyl}-2,3-dihydro-2-methyl-6-nitroimidazo[2,1-b]oxazole], the MIC was 0.5 µg/mL (≈ 1.07 µM) in data set [1] (setting [4]) and < 1 µg/mL in data set [1] (setting [5]). Besides, the selectivity ratio at 24 h, 40 μg/ml in data set [2] was > 10. The Cytotoxicity in data set [3] was >40 µg/mL.

In the case of `Cc1ccc(OCc2cc(-c3ccc(OC[C@@]4(C)Cn5cc([N+](=O)[O-])nc5O4)cc3)no2)cc1` [IC17, (R)-2-{4-[5-(4-methylphenoxymethyl)isoxazol-3-yl]phenoxymethyl}-2,3-dihydro-2-methyl-6-nitroimidazo[2,1-b]oxazole], the results for the MIC in data set [1] (setting [4]) and in data set [1] (setting [5]) were 0.5 µg/mL (≈ 1.08 µM) and < 1 µg/mL, respectively. Besides, the selectivity ratio at 24 h, 40 μg/ml in data set [2] is > 10. For the same molecule, the Cytotoxicity in data set [3] was >40 µg/mL.

Regarding `CC(C)c1ccc(OCc2cc(-c3ccc(OC[C@@]4(C)Cn5cc([N+](=O)[O-])nc5O4)cc3)no2)cc1` [IC18, (R)-2-{4-[5-(4-isopropylphenoxymethyl)isoxazol-3-yl]phenoxymethyl}-2,3-dihydro-2-methyl-6-nitroimidazo[2,1-b]oxazole], the MIC in data set [1] (setting [4]) was 0.25 µg/mL (≈ 0.51 µM); in data set [1] (setting [5]), < 1 µg/mL. The selectivity ratio at 24 h, 40 μg/ml in data set [2] was > 10. Further, in data set [3], the Cytotoxicity is >40 µg/mL.

Consider `C[C@]1(COc2ccc(-c3cc(COc4ccc(F)cc4F)on3)cc2)Cn2cc([N+](=O)[O-])nc2O1` [IC22, (R)-2-{4-[5-(2,4-difluorophenoxymethyl)isoxazol-3-yl]phenoxymethyl}-2,3-dihydro-2-methyl-6-nitroimidazo[2,1-b]oxazole], for which the MIC was 0.12 µg/mL (≈ 0.248 µM) in data set [1] (setting [4]) and < 1 µg/mL in data set [1] (setting [5]). Moreover, the selectivity ratio at 24 h, 40 μg/ml in data set [2] was > 10. The Cytotoxicity in data set [3] is >40 µg/mL.

With `C[C@]1(COc2ccc(NC(=O)Nc3ccc(F)cc3)cc2)Cn2cc([N+](=O)[O-])nc2O1` [IIA1, (R)-1-(4-fluorophenyl)-3-{4-(2-methyl-6-nitro-2,3-dihydroimidazo[2,1-b]oxazol-2-yl)methoxyphenyl}urea], the MIC in data set [1] (setting [4]) came out at 2 µg/mL (≈ 4.68 µM). For the same molecule, the selectivity ratio at 24 h, 40 μg/ml in data set [2] was > 10. In addition, the Cytotoxicity in data set [3] was >40 µg/mL.

On to `CCc1ccc(NC(=O)Nc2ccc(OC[C@@]3(C)Cn4cc([N+](=O)[O-])nc4O3)cc2)cc1` [IIA2, (R)-1-(4-ethylphenyl)-3-{4-(2-methyl-6-nitro-2,3-dihydroimidazo[2,1-b]oxazol-2-yl)methoxyphenyl}urea], for which the minimum inhibitory concentration (MIC) in data set [1] (setting [4]) is 0.5 µg/mL (≈ 1.14 µM); in data set [1] (setting [5]), < 1 µg/mL. In data set [2], the selectivity ratio at 24 h, 40 μg/ml was > 10. Also, in data set [3], the Cytotoxicity is >40 µg/mL.

As to `Cc1ccc(NC(=O)Nc2ccc(OC[C@@]3(C)Cn4cc([N+](=O)[O-])nc4O3)cc2)cc1` [IIA4, (R)-1-(4-methylphenyl)-3-{4-(2-methyl-6-nitro-2,3-dihydroimidazo[2,1-b]oxazol-2-yl)methoxyphenyl}urea], the figures for the MIC in data set [1] (setting [4]) and in data set [1] (setting [5]) were 0.06 µg/mL (≈ 0.142 µM) and < 1 µg/mL, respectively. Moreover, the selectivity ratio at 24 h, 40 μg/ml in data set [2] is > 10. Further, in data set [3], the Cytotoxicity is >40 µg/mL.

Take `COc1ccc(NC(=O)Nc2ccc(OC[C@@]3(C)Cn4cc([N+](=O)[O-])nc4O3)cc2)cc1` [IIA5, (R)-1-(4-methoxyphenyl)-3-{4-(2-methyl-6-nitro-2,3-dihydroimidazo[2,1-b]oxazol-2-yl)methoxyphenyl}urea]: the MIC in data set [1] (setting [4]) worked out at 1 µg/mL (≈ 2.28 µM). In data set [2], the selectivity ratio at 24 h, 40 μg/ml was > 10. In data set [3], the Cytotoxicity is >40 µg/mL.

For `C[C@]1(COc2ccc(NC(=O)Nc3ccc(OC(F)(F)F)cc3)cc2)Cn2cc([N+](=O)[O-])nc2O1` [IIA6, (R)-1-(4-trifluoromethoxyphenyl)-3-{4-(2-methyl-6-nitro-2,3-dihydroimidazo[2,1-b]oxazol-2-yl)methoxyphenyl}urea], the results for the MIC in data set [1] (setting [4]) and in data set [1] (setting [5]) were 0.5 µg/mL (≈ 1.01 µM) and < 1 µg/mL, respectively. For the same molecule, the selectivity ratio at 24 h, 40 μg/ml in data set [2] is > 10. For the same molecule, the Cytotoxicity in data set [3] is >40 µg/mL.

`C[C@]1(COc2ccc(S(=O)(=O)N3CCN(c4cccc(Cl)c4)CC3)cc2)Cn2cc([N+](=O)[O-])nc2O1` [IIC3, (R)-2-{4-[4-(3-chlorophenyl)piperazin-1-yl]sulfonylphenoxymethyl}-2,3-dihydro-2-methyl-6-nitroimidazo[2,1-b]oxazole]: the minimal inhibitory concentration (MIC) in data set [1] (setting [4]) was determined as 8 µg/mL (≈ 15 µM). For the same molecule, the selectivity ratio at 24 h, 40 μg/ml in data set [2] was > 10. The Cytotoxicity in data set [3] is >40 µg/mL.

For `C[C@]1(COc2ccc(S(=O)(=O)N3CCN(c4ccc(OC(F)(F)F)cc4)CC3)cc2)Cn2cc([N+](=O)[O-])nc2O1` [IIC4, (R)-2-{4-[4-(4-trifluoromethoxyphenyl)piperazin-1-yl]sulfonylphenoxymethyl}-2,3-dihydro-2-methyl-6-nitroimidazo[2,1-b]oxazole], in data set [1] (setting [4]), the MIC is 2 µg/mL (≈ 3.43 µM). Moreover, in data set [2], the selectivity ratio at 24 h, 40 μg/ml was > 10. Also, the Cytotoxicity in data set [3] is >40 µg/mL.

In the case of `CCOC(=O)N1CCN(S(=O)(=O)c2ccc(OC[C@@]3(C)Cn4cc([N+](=O)[O-])nc4O3)cc2)CC1` [IIC5, (R)-ethyl-{4-[4-(2-methyl-6-nitro-2,3-dihydroimidazo[2,1-b]oxazol-2yl)methoxyphenyl]sulfonyl}piperazine-1-carboxylate], in data set [1] (setting [4]), the MIC was found to be 2 µg/mL (≈ 4.04 µM). In data set [2], the selectivity ratio at 24 h, 40 μg/ml is > 10. Also, in data set [3], the Cytotoxicity was >40 µg/mL.

Take `C[C@]1(COc2ccc(S(=O)(=O)N3CCN(C(=O)c4ccccc4)CC3)cc2)Cn2cc([N+](=O)[O-])nc2O1` [IIC6, (R)-{4-[4-(2-methyl-6-nitro-2,3-dihydroimidazo[2,1-b]oxazol-2yl)methoxyphenyl]sulfonyl}piperazine-1-yl(phenyl)methanone]: the minimal inhibitory concentration (MIC) in data set [1] (setting [4]) was 2 µg/mL (≈ 3.79 µM). Also, the selectivity ratio at 24 h, 40 μg/ml in data set [2] is > 10. Further, the Cytotoxicity in data set [3] is >40 µg/mL.

On to `C[C@]1(COc2ccc(S(=O)(=O)N3CCCCC3)cc2)Cn2cc([N+](=O)[O-])nc2O1` [IIC7, (R)-2-{4-(piperidin-1-ylsulfonyl)phenoxymethyl}-2,3-dihydro-2-methyl-6-nitroimidazo[2,1-b]oxazole], for which the MIC in data set [1] (setting [4]) was determined as 1 µg/mL (≈ 2.37 µM). Besides, the selectivity ratio at 24 h, 40 μg/ml in data set [2] is > 10. Also, in data set [3], the Cytotoxicity is >40 µg/mL.
